Data as given in patent US6900216B2, “Dihydroimidazo[2,1-b]thiazole and dihydro-5h-thiazolo[3,2-A]pyrimidines as antidepressant agents” (Knoll GmbH, priority 2000, dated 2005).

Legend:
[1] = molecular target: T1, 5-HT reuptake sites (Rattus norvegicus, UniProt P31652); assay: 5-HT uptake: displacement of [3H]citalopram from 5-HT reuptake sites, rat frontal cortical membranes; type: binding; conditions: for Ki: [3H]citalopram 1.3 nM, rat frontal cortical membranes, fit to data from three experiments; for inhibition at 1 µM: 10^−6 M test compound, single determination, [3H]citalopram
T1 construct: Frontal cortical tissue from the brains of male Charles River rats; from tissue; host or cells: rat frontal cortical membranes
T1 sequence (P31652 whole entry): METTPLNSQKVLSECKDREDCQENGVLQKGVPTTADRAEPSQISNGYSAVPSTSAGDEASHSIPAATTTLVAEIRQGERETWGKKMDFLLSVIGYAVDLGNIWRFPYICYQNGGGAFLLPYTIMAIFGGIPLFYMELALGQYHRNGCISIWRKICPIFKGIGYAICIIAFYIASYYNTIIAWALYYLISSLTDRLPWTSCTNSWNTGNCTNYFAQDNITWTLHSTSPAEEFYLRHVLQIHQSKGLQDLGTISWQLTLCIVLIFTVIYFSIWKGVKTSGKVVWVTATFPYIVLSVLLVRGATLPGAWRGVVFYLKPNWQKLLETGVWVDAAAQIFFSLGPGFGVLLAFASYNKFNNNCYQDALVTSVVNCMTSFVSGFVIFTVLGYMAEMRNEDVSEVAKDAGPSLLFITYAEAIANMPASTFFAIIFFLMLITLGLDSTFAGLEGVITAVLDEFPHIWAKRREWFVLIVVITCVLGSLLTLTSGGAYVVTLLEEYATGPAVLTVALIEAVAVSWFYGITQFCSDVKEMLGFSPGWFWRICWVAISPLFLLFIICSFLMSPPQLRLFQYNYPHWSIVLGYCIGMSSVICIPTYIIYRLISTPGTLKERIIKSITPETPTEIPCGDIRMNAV
Experimental: Frontal cortical tissue from the brains of male Charles River rats weighing 150-250 g was homogenised in ice-cold 50 mM Tris-HCl, pH 7.4 (when measured at 25° C.) containing 120 mM sodium chloride and 5 mM potassium chloride (Tris buffer; 1:30 w/v) and centrifuged at 40,000 g for 10 minutes. The supernatant was discarded and the pellet rehomogenised in Tris buffer, 1:60 w/v, and centrifuged at 40,000 g for 10 minutes. This step was repeated a further time. The final pellet was resuspended in 50 mM Tris-HCl, pH 7.4 containing 120 mM sodium chloride and 5 mM potassium chloride (equivalent to 3.125 mg wet weight of tissue/ml) and used immediately in the binding assay. All centrifugations were performed at 4° C.
Membranes (400 μl; equivalent to 1.25 mg wet weight of tissue/tube) were incubated with 50 μl [^3H]citalopram at a single concentration of 1.3 nM and 50 μl of distilled water (total binding) or 50 μl of test compound (at a single concentration of 10^−6 M or at 10 concentrations ranging from 10^−11-10^−3 M) or 50 μl of paroxetine (0.5 μM; non-specific binding) for 1 h at 27° C. Membrane bound radioactivity was recovered by filtration under vacuum through Skatron 11734 filters presoaked in 0.5% PEI using a Skatron Cell Harvester. Filters were then washed in ice-cold 50 mM Tris-HCl buffer, pH 7.4 (at 25° C., wash setting 9,9,0). The scored filter paper discs were punched out into vials, scintillation fluid added and radioactivity determined by liquid scintillation counting.
(§1) For each of these tests measuring the ability of compounds of Formula I to displace standard ligands from 5-HT1A receptors and 5-hydroxytryptamine (5-HT) and noradrenaline (NA) reuptake sites and muscarinic receptors in vitro, the percentage displacement of specific binding of tritiated ligand by 10^−6 M test compound was calculated in the following way.
(§2) Firstly, specific binding of tritiated ligand in the absence (A) and presence (B) of test compound was determined:
(§3) In the absence of compound: A(dpm)=Total binding (dpm)−Non-specific binding (dpm) In the presence of compound (10^−6 M): B(dpm)=Binding at 10^−6M (dpm)−Non-specific binding (dpm)
(§4) The specific binding of tritiated ligand in the presence (B) of compound was then converted to a percentage of specific binding of tritiated ligand in the absence (A) of compound: % Specific binding at 10^−6 M=B(dpm)/A(dpm)×100
(§5) The percentage displacement of specific binding of tritiated ligand by the test compound (10^−6 M) was then obtained by subtraction of the percentage specific binding in the presence of compound from the percentage specific binding in the absence of compound, which is taken as the maximum binding and so equals 100%:
(§6) % Displacement at 10^−6 M=100−% Specific binding at 10^−6 M.
(§7) In some cases, displacement curves were then produced for compounds which displaced ≧50% of specific binding of the tritiated ligand at 10^−6 M using a range of concentrations of the compound. The Ki was then calculated by simultaneous fitting using equations derived from the Feldman equations by robust non-linear regression to data from three experiments simultaneously (De Lean et al., 1978; Munson and Rodbard, 1980; Feldman, 1992). Munson P J and Rodbard D. Ligand: a versatile computerised approach for characterisation of ligand binding systems. Anal Biochem 1980; 107: 220. Feldman HA. Mathematical theory of complex ligand binding systems at equilibrium: some methods for parameter fitting. Anal Biochem 1992: 48, 317. De Lean A, Munson P J and Rodbard D. Simultaneous analysis of families of sigmoidal curves: application to bioassay, radioligand assay, and physiological dose-response curves. Am J Physiol 1978: 235 (2), E97-E102.
(§8) The results obtained in the above tests for 5-HT1A binding and 5-HT and NA uptake and muscarinic binding for the final products of Examples 1-39 hereinafter are given in Table 1 below. Kis are in nM. % Figures are for % displacement at 10^−6 M for a single determination.

[2] = molecular target: T2, 5-HT1A receptors (Rattus norvegicus, UniProt P19327); assay: 5-HT1A binding: inhibition of [3H]8-OH-DPAT binding to rat hippocampal membranes; conditions: for Ki: [3H]8-OH-DPAT 1 nM, rat hippocampal membranes, fit to data from three experiments; for inhibition at 1 µM: read-out: 5-HT1A % displacement at 10^−6 M
T2 construct: Hippocampal tissue from the brains of male Sprague-Dawley rats; from tissue; host or cells: rat hippocampal membranes
T2 sequence (P19327 1-422): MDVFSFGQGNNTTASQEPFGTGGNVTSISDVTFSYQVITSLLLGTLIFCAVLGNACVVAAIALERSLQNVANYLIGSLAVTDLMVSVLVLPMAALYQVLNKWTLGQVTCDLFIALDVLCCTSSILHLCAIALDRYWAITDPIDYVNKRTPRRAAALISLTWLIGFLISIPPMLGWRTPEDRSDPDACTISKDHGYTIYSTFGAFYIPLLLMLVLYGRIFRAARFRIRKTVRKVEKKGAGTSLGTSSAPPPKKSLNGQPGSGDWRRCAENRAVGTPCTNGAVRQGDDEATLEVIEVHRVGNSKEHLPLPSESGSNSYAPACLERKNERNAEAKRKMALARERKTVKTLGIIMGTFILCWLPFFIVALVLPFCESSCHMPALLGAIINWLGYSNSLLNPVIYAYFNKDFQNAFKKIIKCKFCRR
Experimental: Hippocampal tissue from the brains of male Sprague-Dawley rats (Charles River; weight range 150-250 g) was homogenised in ice-cold 50 mM Tris-HCl buffer (pH 7.7 when measured at 25° C., 1:40 w/v) and centrifuged at 40,000 g at 4° C. for 10 minutes. The pellet was rehomogenised in the same buffer, incubated at 37° C. for 10 minutes and centrifuged at 40,000 g at 4° C. for 10 minutes. The final pellet was resuspended in 50 mM Tris-HCl buffer (pH 7.7) containing 4 mM CaCl2, 0.1% L-ascorbic acid and 10 μM pargyline hydrochloride (equivalent to 6.25 mg wet weight of tissue/ml) and used immediately in the binding assay.
Membranes (400 μl; equivalent to 2.5 mg wet weight of tissue/tube) were incubated with 50 μl of [^3H]8-hydroxy-2-(dipropylamino)tetralin ([^3H]8-OH-DPAT) at a single concentration of 1 nM and 50 μl of distilled water (total binding) or 50 μl of test compound (at a single concentration of 10^−6 M or at 10 concentrations ranging from 10^−11-10^−3 M) or 50 μl of 5-HT (10 μM, non-specific binding) at 25° C. for 30 minutes. The incubation was terminated by rapid filtration under vacuum through Skatron 11734 filters using a Skatron Cell Harvester. Filters were washed with ice-cold 50 mM Tris-HCl buffer, pH 7.7 (at 25° C., wash setting 9,9,0). The scored filter paper discs were punched out into vials, scintillation fluid added and radioactivity determined by liquid scintillation counting.
as §1, §2, §3, §4, §5, §6, §7, §8

Row | Ki [1] [nM] | Ki [2] [nM] | Compound | inhibition at 1 µM [1] [%] | inhibition at 1 µM [2] [%]
1 | 229 | 20 | CC1=C(c2cccc3ccsc23)N2CCN=C2S1.Cl [Example 23, 3-(benzo[b]thiophen-7-yl)-2-methyl-5,6-dihydroimidazo[2,1-b]thiazole hydrochloride] | – | –
2 | 53 | 45 | Br.c1cc(C2=C(C3CC3)SC3=NCCN32)c2ccsc2c1 [Example 34, 3-(benzo[b]thiophen-4-yl)-2-cyclopropyl-5,6-dihydroimidazo[2,1-b]thiazole hydrobromide] | – | –
3 | 92 | 31 | Br.CC1=C(c2ccc3sccc3c2)N2CCN=C2S1 [Example 21, 3-(benzo[b]thiophen-5-yl)-2-methyl-5,6-dihydroimidazo[2,1-b]thiazole hydrobromide] | – | –
4 | 175 | 20.4 | OCC1=C(c2cccc3sccc23)N2CCN=C2S1 [Example 3, [3-(benzo[b]thiophen-4-yl)-5,6-dihydroimidazo[2,1-b]thiazol-2-yl]methanol] | – | –
5 | 4.1 | 83 | CC(C)C1=C(c2ccc3sccc3c2)N2CCN=C2S1 [Example 29, 3-(benzo[b]thiophen-5-yl)-2-(1-methylethyl)-5,6-dihydroimidazo[2,1-b]-thiazole] | – | –
6 | 44.4 | 9.7 | Br.CC1=C(c2cc3ccccc3s2)N2CCN=C2S1 [Example 6, 3-(benzo[b]thiophen-2-yl)-2-methyl-5,6-dihydroimidazo[2,1-b]thiazole hydrobromide] | – | –
7 | 127 | 11.7 | Br.CC1=C(c2cc3c(F)cccc3s2)N2CCN=C2S1 [Example 7, 3-(4-fluorobenzo[b]thiophen-2-yl)-2-methyl-5,6-dihydroimidazo[2,1-b]thiazole hydrobromide] | – | –
8 | 61 | 29 | Br.CC1=C(c2ccc(F)c3sccc23)N2CCN=C2S1 [Example 38, 3-(7-fluorobenzo[b]thiophen-4-yl)-2-methyl-5,6-dihydroimidazo[2,1-b]thiazole hydrobromide] | – | –
9 | 275 | 14.3 | Br.CC1=C(c2cccc3sccc23)N2CCN=C2S1 [Example 8, 3-(benzo[b]thiophen-4-yl)-2-methyl-5,6-dihydroimidazo[2,1-b]thiazole hydrobromide] | – | –
10 | 89 | 40 | Br.C=CCC1=C(c2cccc3sccc23)N2CCN=C2S1 [Example 36, 2-allyl-3-(benzo[b]thiophen-4-yl)-5,6-dihydroimidazo[2,1-b]thiazole hydrobromide] | – | –

Second part, the compound before the results:

Row | Compound | Ki [1] [nM] | Ki [2] [nM] | inhibition at 1 µM [1] [%] | inhibition at 1 µM [2] [%]
11 | OCC1=C(c2ccc3sccc3c2)N2CCN=C2S1 [Example 28, [3-(benzo[b]thiophen-5-yl)-5,6-dihydroimidazo[2,1-b]-thiazol-2-yl]methanol] | 148 | 38.5 | – | –
12 | Br.Oc1cccc2sc(C3=CSC4=NCCN34)cc12 [Example 12, 2-(5,6-dihydroimidazo[2,1-b]thiazol-3-yl)benzo[b]thiophen-4-ol hydrobromide] | 16 | 52 | – | –
13 | Br.CC1=C(c2cc3c(Cl)cccc3s2)N2CCCN=C2S1 [Example 17, 3-(4-chlorobenzo[b]thiophen-2-yl)-2-methyl-6,7-dihydro-5H-thiazolo[3,2-a]pyrimidine hydrobromide] | – | – | 84 | 82
14 | Br.COc1cccc2cc(C3=C(C)SC4=NCCN43)sc12 [Example 26, 3-(7-methoxybenzo[b]thiophen-2-yl)-2-methyl-5,6-dihydroimidazo[2,1-b]thiazole hydrobromide] | – | – | 64 | 90
15 | CSC1=C(c2cccc3sccc23)N2CCN=C2S1.Cl [Example 22, 3-(benzo[b]thiophen-4-yl)-2-(methylthio)-5,6-dihydroimidazo[2,1-b]thiazole hydrochloride] | 85 | – | – | 88
16 | CC(C)C1=C(c2cccc3sccc23)N2CCN=C2S1.O=C(O)/C=C/C(=O)O [Example 35, 3-(benzo[b]thiophen-4-yl)-2-(1-methylethyl)-5,6-dihydroimidazo[2,1-b]thiazole fumarate] | 83 | 151 | – | –
17 | Br.CCC1=C(c2cc3cc(Cl)ccc3s2)N2CCN=C2S1 [Example 11, 3-(5-chlorobenzo[b]thiophen-2-yl)-2-ethyl-5,6-dihydroimidazo[2,1-b]thiazole hydrobromide] | – | – | 97 | 80
18 | Cl.Fc1cccc2sc(C3=CSC4=NCCN34)cc12 [Example 5, 3-(4-fluorobenzo[b]thiophen-2-yl)-5,6-dihydroimidazo[2,1-b]thiazole hydrochloride] | – | – | 95 | 55
19 | Br.CC1=C(c2cc3c(Cl)c(Cl)ccc3s2)N2CCN=C2S1 [Example 24, 3-(4,5-dichlorobenzo[b]thiophen-2-yl)-2-methyl-5,6-dihydroimidazo[2,1-b]-thiazole hydrobromide] | – | – | 97 | 76
20 | Br.CC1(c2cc3cc(F)ccc3s2)CSC2=NCCN21 (centres unmarked) [Example 27, 3-(5-fluorobenzo[b]thiophen-2-yl)-3-methyl-5,6-dihydroimidazo[2,1-b]thiazole hydrobromide] | – | – | 85 | 88
21 | Br.CC1=C(c2cc3c(C)cccc3s2)N2CCN=C2S1 [Example 16, 2-methyl-3-(4-methylbenzo[b]thiophen-2-yl)-5,6-dihydroimidazo[2,1-b]thiazole hydrobromide] | – | – | 93 | 97
22 | C1=C(c2cccc3sccc23)N2CCN=C2S1.Cl [Example 2, 3-(benzo[b]thiophen-4-yl)-5,6-dihydroimidazo[2,1-b]thiazole hydrochloride] | 45 | 86 | – | –
